Laboratory results from ChEMBL document CHEMBL1201862, “PubChem BioAssay data set” (2004).
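1) Cells in 96-well plates. 2) Compound, 48 h, 5 concentrations. 3) Linear interpolation between surrounding doses. 4) Unreached endpoint = highest concentration. Here, GI50 denotes the concentration required for 50% inhibition of growth.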 Activity calls are given as the source filed them. Rule as the data show it: active = GI50 up to about 1.1 µM and inactive = higher.

Columns and labels:
Assay in all cases: NCI-60 cell line screen, 48 h
TK-10 = tested on: TK-10
NCI-H226 = tested on: NCI-H226
M14 = tested on: M14
COLO 205 = tested on: COLO 205
HCT-116 = tested on: HCT-116
LOX IMVI = tested on: LOX IMVI
HOP-62 = tested on: HOP-62
SN12C = tested on: SN12C
Malme-3M = tested on: Malme-3M
CAKI-1 = tested on: CAKI-1
SF-268 = tested on: SF-268
EKVX = tested on: EKVX
OVCAR-8 = tested on: OVCAR-8
SF-539 = tested on: SF-539
IGROV-1 = tested on: IGROV-1
SF-295 = tested on: SF-295
SK-MEL-2 = tested on: SK-MEL-2

Measured: GI50

N#CC(/C(CCCC(=O)Nc1cccc([N+](=O)[O-])c1)=N/NC(=O)c1cc2ccccc2cc1O)c1ccccc1 (stereo not given)
inactive: TK-10 31.1 µM | NCI-H226 > 100 µM | M14 16.3 µM | COLO 205 23.6 µM | HCT-116 35.6 µM | LOX IMVI 16.4 µM | HOP-62 60.7 µM | SN12C 35.6 µM | Malme-3M 67.1 µM | CAKI-1 28 µM | SF-268 48.1 µM | EKVX 23.2 µM | OVCAR-8 17.5 µM | SF-539 27.4 µM | IGROV-1 17.1 µM | SF-295 39.1 µM

O=C1C=C(O)c2nc(O)ccc2C1=O
inactive: TK-10 > 100 µM | NCI-H226 > 100 µM | M14 > 100 µM | COLO 205 > 100 µM | HCT-116 > 100 µM | LOX IMVI > 100 µM | HOP-62 > 100 µM | SN12C > 100 µM | Malme-3M > 100 µM | CAKI-1 > 100 µM | SF-268 > 100 µM | EKVX > 100 µM | OVCAR-8 > 100 µM | SF-539 > 100 µM | IGROV-1 > 100 µM | SF-295 > 100 µM

C#C[C@@]1(O)CCCC2=CC(=O)C[C@]21C
inactive: TK-10 > 100 µM | NCI-H226 > 100 µM | M14 > 100 µM | COLO 205 > 100 µM | SK-MEL-2 > 100 µM | SN12C > 100 µM | Malme-3M > 100 µM | SF-268 > 100 µM | EKVX > 100 µM | OVCAR-8 > 100 µM | SF-539 > 100 µM | IGROV-1 > 100 µM | SF-295 > 100 µM

COC(=O)C[S+]([O-])c1ccccc1 (stereo not given)
inactive: TK-10 44 µM | M14 37.3 µM | COLO 205 34.3 µM | HCT-116 30.3 µM | LOX IMVI 21.8 µM | SK-MEL-2 35.6 µM | HOP-62 32.6 µM | SN12C 17.6 µM | Malme-3M > 100 µM | CAKI-1 58.1 µM | SF-268 14 µM | EKVX 50.7 µM | OVCAR-8 27.5 µM | SF-539 20.9 µM | IGROV-1 19.2 µM | SF-295 36.6 µM

COC(=O)N/N=C/c1oc(-c2ccccc2)c(-c2ccccc2)c1[N+](=O)[O-]
inactive: TK-10 > 100 µM | NCI-H226 > 100 µM | M14 > 100 µM | COLO 205 > 100 µM | HCT-116 > 100 µM | LOX IMVI > 100 µM | HOP-62 > 100 µM | SN12C > 100 µM | Malme-3M > 100 µM | CAKI-1 > 100 µM | SF-268 > 100 µM | OVCAR-8 > 100 µM | SF-539 > 100 µM | IGROV-1 > 100 µM | SF-295 > 100 µM

CC(=O)NCc1c(C(N)=O)ncn1Cc1ccccc1
inactive: TK-10 > 100 µM | M14 > 100 µM | COLO 205 > 100 µM | HCT-116 > 100 µM | LOX IMVI > 100 µM | HOP-62 > 100 µM | SN12C > 100 µM | CAKI-1 > 100 µM | EKVX > 100 µM | OVCAR-8 > 100 µM | SF-539 > 100 µM | IGROV-1 > 100 µM | SF-295 > 100 µM

O=c1c2ccccc2oc2nccnc12
inactive: TK-10 > 100 µM | M14 > 100 µM | COLO 205 > 100 µM | HCT-116 > 100 µM | LOX IMVI > 100 µM | SK-MEL-2 > 100 µM | HOP-62 > 100 µM | SN12C > 100 µM | Malme-3M > 100 µM | CAKI-1 > 100 µM | SF-268 > 100 µM | EKVX > 100 µM | OVCAR-8 > 100 µM | SF-539 > 100 µM | IGROV-1 > 100 µM | SF-295 > 100 µM
